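Each compound was tested at five concentrations against cells in 96-well plates for 48 hours. GI50 is the concentration that inhibits growth by half. TGI: concentration producing complete growth inhibition.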
Legend:
Assay in all cases: NCI tumour cell line growth inhibition, 48 h
HOP-62 NSCLC = system: HOP-62 NSCLC
BT-549 breast = system: BT-549 breast
MALME-3M melanoma = system: MALME-3M melanoma
SW-620 colon = system: SW-620 colon
SNB-75 CNS = system: SNB-75 CNS
SK-OV-3 ovarian = system: SK-OV-3 ovarian
NCI-H226 lung = system: NCI-H226 lung
M14 melanoma = system: M14 melanoma
PC-3 prostate = system: PC-3 prostate
RXF 393 renal = system: RXF 393 renal

Row | Compound | GI50 (HOP-62 NSCLC) [µM] | TGI (HOP-62 NSCLC) [µM] | GI50 (BT-549 breast) [µM] | TGI (BT-549 breast) [µM] | GI50 (MALME-3M melanoma) [µM] | TGI (MALME-3M melanoma) [µM] | GI50 (SW-620 colon) [µM] | TGI (SW-620 colon) [µM] | GI50 (SNB-75 CNS) [µM] | TGI (SNB-75 CNS) [µM] | GI50 (SK-OV-3 ovarian) [µM] | TGI (SK-OV-3 ovarian) [µM] | GI50 (NCI-H226 lung) [µM] | TGI (NCI-H226 lung) [µM] | GI50 (M14 melanoma) [µM] | GI50 (PC-3 prostate) [µM] | TGI (PC-3 prostate) [µM] | TGI (M14 melanoma) [µM] | TGI (RXF 393 renal) [µM] | GI50 (RXF 393 renal) [µM]
1 | CS[C@@]1(C(=O)Nc2ccc3[nH]nc(-c4ccc(OC(C)C)nc4)c3c2)CCN(CC(=O)N2CC=C(c3ccc(-c4ncn(C)n4)cc3)CC2)C1 | 0.378 | > 100 | 9.43 | > 100 | 0.0155 | 0.105 | 0.201 | > 100 | > 100 | > 100 | > 100 | > 100 | > 100 | > 100 | 0.032 | 6.56 | > 100 | – | – | –
2 | O=C(/C=C/c1cccc(B(O)O)c1)c1cccc(B(O)O)c1 | 1.59 | 3.26 | 1.06 | 2.37 | 2.26 | 6.01 | 0.765 | 2.31 | 3.61 | 16.3 | 3.16 | 11.6 | 1.91 | 4.14 | 1.51 | 2.53 | 11.2 | 3.33 | – | –
3 | O=[N+]([O-])c1cc(/C=N/NS(=O)(=O)c2ccc(F)cc2)c(O)c([N+](=O)[O-])c1 | – | > 100 | – | – | – | > 100 | – | > 100 | – | 76.9 | – | 78.3 | – | – | – | – | – | 52.2 | 84.9 | –
4 | COc1ccc(C2C3=C(COC3=O)N(CCO)c3cc4c(cc32)OCCO4)cc1OC (stereo unspecified) | 9.58 | > 50 | 5.06 | > 47.9 | > 50 | > 50 | 1.8 | > 50 | – | – | 1.98 | > 50 | > 50 | > 50 | 1.94 | 1.58 | > 50 | > 30.7 | 2.86 | 0.807
5 | Cc1cccc(N=C2NC(=O)C(CC(=O)Nc3ccc(Cl)cc3C)S2)c1 (stereo unspecified) | – | > 100 | – | – | – | > 100 | – | > 100 | – | > 100 | – | > 100 | – | > 100 | – | – | – | > 100 | > 100 | –
6 | C[C@]12CCCC(=O)C1C[C@H](C(=O)O)CC2 (stereo partly specified) | – | > 100 | – | – | – | > 100 | – | > 100 | – | > 100 | – | > 100 | – | > 100 | – | – | – | > 100 | – | –
7 | O=C1c2cccc3cc([N+](=O)[O-])cc(c23)C(=O)N1O | – | > 100 | – | > 100 | – | > 100 | – | > 100 | – | – | – | > 100 | – | > 100 | – | – | > 100 | > 100 | > 100 | –
8 | CCOC(=O)C1(Cc2ccc3ccccc3c2)CCCCCN1 (stereo unspecified) | – | > 100 | – | – | – | 33.9 | – | 64.9 | – | 30.2 | – | > 100 | – | – | – | – | – | 48.1 | 83.2 | –
9 | CCN(CC)c1ccc2nc3c4ccccc4c(=NC(=O)c4ccccc4-c4c5ccc(N(CC)CC)cc5[o+]c5cc(N(CC)CC)ccc45)cc-3oc2c1 | 1.81 | 4.53 | 14 | 30.8 | 2.92 | 10.2 | 2.54 | > 22.5 | 8.27 | 23.5 | 12.3 | 26.6 | 15.4 | 38.8 | 2.47 | 1.97 | > 20.6 | – | – | –
10 | Nn1c(N=Nc2c(O)[nH]c3ccccc23)n[nH]c1=S | – | > 100 | – | – | – | > 100 | – | > 100 | – | – | – | > 100 | – | > 100 | – | – | – | > 100 | 95.1 | –
11 | CC12OC3CC(O1)C1(C=O)C4CCC5(C)C(c6ccc(=O)oc6)CCC5(O)C4CCC1(C3)O2 (stereo unspecified) | – | 0.348 | – | – | – | 0.51 | – | 1.27 | – | 1.03 | – | 0.513 | – | 1.23 | – | – | – | 0.596 | 0.256 | –
12 | CCC[CH2][Sn]1([CH2]CCC)[O]C(=O)c2cc(C)ccc2[O]1 | – | – | – | – | 0.112 | 0.938 | 0.211 | 0.574 | 0.291 | 1.2 | 1.58 | 2.99 | 1.85 | 3.37 | 0.342 | – | – | 1.5 | 0.555 | 0.283
13 | N#CC12Cc3ccc4c(c3-c3cccc(c31)CCN2C(=O)c1ccccc1)OCO4 (stereo unspecified) | – | > 100 | – | – | – | > 100 | – | > 100 | – | > 100 | – | > 100 | – | > 100 | – | – | – | > 100 | > 100 | –
14 | COc1cc(/C=C/C(=O)c2ccc(Nc3nc(Nc4ccccc4)nc(Nc4ccc(Cl)cc4)n3)cc2)cc(OC)c1OC | > 32.5 | > 32.5 | 7.51 | > 32.5 | 9.71 | > 32.5 | 8.46 | > 32.5 | 6.05 | > 32.5 | > 32.5 | > 32.5 | 7.66 | > 32.5 | 15.1 | – | – | > 32.5 | 25.3 | 5.09
15 | CC12C(=O)N(CCN)C(=O)C1C1c3ccccc3C2c2ccccc21 (stereo unspecified) | – | > 100 | – | – | – | > 100 | – | > 100 | – | > 100 | – | > 100 | – | > 100 | – | – | – | > 100 | – | –
16 | Cc1cc(C)c2[s+]snc2c1 | – | > 100 | – | – | – | > 100 | – | > 100 | – | > 100 | – | > 100 | – | > 100 | – | – | – | > 100 | 91.6 | –
17 | CCOc1ccc(NC(=O)CCC(=O)NN)cc1 | – | > 100 | – | – | – | > 100 | – | > 100 | – | > 100 | – | – | – | > 100 | – | – | – | > 100 | > 100 | –
18 | NNC(=S)N/N=C/C(Cl)=C(\Cl)C(=O)O | – | – | – | – | – | > 100 | – | > 100 | – | > 100 | – | – | – | > 100 | – | – | – | > 100 | > 100 | –
19 | CC1(C)CC2CC(C)(CN2c2ncnc3ccc(Br)cc23)C1 (stereo unspecified) | 12.9 | 25.6 | – | – | 0.195 | 11.6 | 15 | 30.7 | – | – | 16.8 | 31.2 | 3.32 | 16.2 | 11 | – | – | 22.9 | 23.6 | 11
20 | CC[O-].CC[O-].O=C([CH-]C(=O)c1ccccc1)c1ccccc1.O=C([CH-]C(=O)c1ccccc1)c1ccccc1.[Ti+4] | > 100 | > 100 | – | – | > 100 | > 100 | > 100 | > 100 | 61.6 | > 100 | > 100 | > 100 | 25.2 | > 100 | > 100 | – | – | > 100 | > 100 | 39.1
